This is an account of results in US9499493B2, “2,4-pyrimidinediamine compounds and their uses” (Rigel Pharmaceuticals, Inc., priority 2002, dated 2016).

Assay [1] concerns cultured human mast cells (CHMC). The experiment in a line: CHMC low cell density IgE activation: tryptase assay. The following applies: anti-IgE. It is filed as cell-based. In short, it runs like this: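 Supernatant tryptase activity, assayed with substrate for 30 min at room temperature, served as the degranulation measure. Mast cells (1000-1500 per well depending on donor) sat 1 hr at 37° C in MT before a 30 min anti-IgE challenge at 37° C.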

The test system is the same in assay [2]. The assay can be described thus: CHMC low cell density ionomycin activation: tryptase assay. It is filed as cell-based.

Some results are limits rather than exact numbers.

For `CC1(C)Oc2ccc(Nc3nc(Nc4ccc5c(c4)NC(=O)C(F)(F)O5)ncc3F)cc2NC1=O` [R940351, N2-[(2,2-Difluoro-4H-benzo[1,4]oxazin-3-one)-6-yl]-N4-[(2,2-dimethyl-4H-benzo[1,4]oxazin-3-one)-6-yl]-5-fluoro-2,4-pyrimidinediamine], the IC50 in assay [1] stood at 120 nM; in assay [2], 2700 nM.
Turning to `COC(=O)c1cc2cc(Nc3ncc(F)c(Nc4ccc5c(c4)NC(=O)C(F)(F)O5)n3)ccc2o1` [R940353, N4-[(2,2-Difluoro-4H-benzo[1,4]oxazin-3-one)-6-yl]-5-fluoro-N2-(2-methoxycarbonylbenzofur-5-yl)-2,4-pyrimidinediamine], the IC50 was 91 nM in assay [1] and > 10000 nM in assay [2].
Turning to `NC(=O)COc1ccc(Nc2ncc(F)c(Nc3ccc(OCC(N)=O)cc3)n2)cc1` [R945025, N2,N4-Bis[4-(aminocarbonylmethyleneoxy)phenyl]-5-fluoro-2,4-pyrimidinediamine], the IC50 in assay [1] and in assay [2] was > 10000 nM throughout.
In the case of `Cn1nnc(COc2ccc(Nc3ncc(F)c(Nc4ccc(OCc5nnn(C)n5)cc4)n3)cc2)n1` [R945046, N2,N4-Bis[4-(2-methyl-1,2,3,4-tetrazol-5-yl)methyleneoxyphenyl]-5-fluoro-2,4-pyrimidinediamine], the values for the IC50 in assay [1] and in assay [2] were 820 nM and > 10000 nM, respectively.
Regarding `Cn1nnc(COc2ccc(Nc3nc(Nc4ccc(OCc5nnnn5C)cc4)ncc3F)cc2)n1` [R945047, 5-Fluoro-N2,N4-[4-(1-methyl-1,2,3,4-tetrazol-5-yl)methyleneoxyphenyl], [4-(2-methyl-1,2,3,4-tetrazol-5-yl)methyleneoxyphenyl]-2,4-pyrimidinediamine], the IC50 in assay [1] was 845 nM; in assay [2], > 10000 nM.
As for `Cn1nnnc1COc1ccc(Nc2ncc(F)c(Nc3ccc(OCc4nnnn4C)cc3)n2)cc1` [R945048, N2,N4-Bis[4-(1-methyl-1,2,3,4-tetrazol-5-yl)methyleneoxyphenyl]-5-fluoro-2,4-pyrimidinediamine], the IC50 in assay [1] was 760 nM; in assay [2] it was > 10000 nM.
As to `COC(=O)COc1ccc(Nc2ncc(F)c(Nc3ccc(OCC(N)=O)cc3)n2)cc1` [R945052, N4-(4-Aminocarbonylmethyleneoxyphenyl)-5-fluoro-N2-(4-methoxycarbonylmethyleneoxyphenyl)-2,4-pyrimidinediamine], the IC50 was 425 nM in assay [1] and 2480 nM in assay [2].
With `COC(=O)COc1ccc(Nc2ncc(F)c(Nc3ccc(OCC#N)cc3)n2)cc1` [R945053, N4-(4-Cyanomethyleneoxyphenyl)5-fluoro-N2-(4-methoxycarbonylmethyleneoxyphenyl)-2,4-pyrimidinediamine], the IC50 was determined as 118 nM in assay [1] and 1480 nM in assay [2].
`COC(=O)COc1ccc(Nc2nc(Nc3ccc(OCC(N)=O)cc3)ncc2F)cc1` [R945060, N2-(4-Aminocarbonylmethyleneoxyphenyl)-5-fluoro-N4-(4-methoxycarbonylmethyleneoxyphenyl)-2,4-pyrimidinediamine]: the IC50 in assay [1] is 938 nM; in assay [2], > 10000 nM.
In the case of `COC(=O)COc1ccc(Nc2nc(Nc3ccc(OCC#N)cc3)ncc2F)cc1` [R945062, N2-(4-Cyanomethyleneoxyphenyl)-5-fluoro-N4-(4-methoxycarbonylmethyleneoxyphenyl)-2,4-pyrimidinediamine], the IC50 in assay [1] was 625 nM; in assay [2], > 10000 nM.
`NC(=O)COc1ccc(Nc2nc(Nc3cccc(O)c3)ncc2F)cc1` [R945063, N4-[4-(Aminocarbonylmethyleneoxy)phenyl]-5-fluoro-N2-(3-hydroxyphenyl)-2,4-pyrimidinediamine]: the values for the IC50 in assay [1] and in assay [2] were 1550 nM and > 10000 nM, respectively.
For `NC(=O)COc1ccc(Nc2ncc(F)c(Nc3cccc(O)c3)n2)cc1` [R945064, N2-[4-(Aminocarbonylmethyleneoxy)phenyl]-5-fluoro-N4-(3-hydroxyphenyl)-2,4-pyrimidinediamine], the half-maximal inhibitory concentration (IC50) in assay [1] was 530 nM; in assay [2], > 10000 nM.
For `CON=C(N)COc1ccc(Nc2ncc(F)c(Nc3ccc(OCC(N)=NOC)cc3)n2)cc1` [R945096, N2,N4-Bis[4-[2-methoxyimino(amino)ethyleneoxy]phenyl]-5-fluoro-2,4-pyrimidinediamine], the IC50 in assay [1] was 1750 nM; in assay [2] it was > 10000 nM.
In the case of `N#CCOc1ccc(Nc2nc(Nc3ccc(OCC(=O)O)cc3)ncc2F)cc1` [R945097, N2-(4-Carboxymethyleneoxyphenyl)-N4-(4-cyanomethyleneoxyphenyl)-5-fluoro-2,4-pyrimidinediamine], the IC50 in assay [1] is 10000 nM; in assay [2], > 10000 nM.
As to `COC(=O)COc1cccc(Nc2ncc(F)c(Nc3cccc(O)c3)n2)c1` [R945118, 5-Fluoro-N4-(3-hydroxyphenyl)-N2-(3-methoxycarbonylmethyleneoxyphenyl)-2,4-pyrimidinediamine], the IC50 in assay [1] is 668 nM; in assay [2], > 10000 nM.
Regarding `COC(=O)COc1cccc(Nc2ncc(F)c(Nc3ccc4c(c3)OCCO4)n2)c1` [R945124, N4-(3,4-Ethylenedioxyphenyl)-5-fluoro-N2-(3-methoxycarbonylmethyleneoxyphenyl)-2,4-pyrimidinediamine], the values for the IC50 in assay [1] and in assay [2] were 690 nM and 7850 nM, respectively.
For `COC(=O)COc1cccc(Nc2ncc(F)c(Nc3ccc(OC(C)C)cc3)n2)c1` [R945125, 5-Fluoro-N4-(4-isopropoxyphenyl)-N2-(3-methoxycarbonylmethyleneoxyphenyl)-2,4-pyrimidinediamine], the IC50 in assay [1] is 896 nM; in assay [2], > 10000 nM.
Regarding `O=C(O)COc1cccc(Nc2ncc(F)c(Nc3cccc(O)c3)n2)c1` [R945126, N2-(3-Carboxymethyleneoxyphenyl)-5-fluoro-N4-(3-hydroxyphenyl)-2,4-pyrimidinediamine], the 50% inhibitory concentration (IC50) in assay [1] and in assay [2] was > 10000 nM each time.
In the case of `Cc1nc(COc2cccc(Nc3ncc(F)c(Nc4cccc(O)c4)n3)c2)no1` [R945127, 5-Fluoro-N4-(3-hydroxyphenyl)-N2-[3-(5-methyl-1,2,4-oxadiazol-3-yl)methyleneoxyphenyl]-2,4-pyrimidinediamine], the results for the IC50 in assay [1] and in assay [2] were 704 nM and 8960 nM, respectively.
Take `Cc1nc(COc2cccc(Nc3ncc(F)c(Nc4ccc(OC(C)C)cc4)n3)c2)no1` [R945129, 5-Fluoro-N4-(4-isopropoxyphenyl)-N2-[3-(5-methyl-1,2,4-oxadiazol-3-yl)methyleneoxyphenyl]-2,4-pyrimidinediamine]: the IC50 was 1000 nM in assay [1] and > 10000 nM in assay [2].
`Cc1noc(COc2cccc(Nc3nc(Nc4cccc(O)c4)ncc3F)c2)n1` [R945130, 5-Fluoro-N2-(3-hydroxyphenyl)-N4-[3-(3-methyl-1,2,4-oxadiazol-5-yl)methyleneoxyphenyl]-2,4-pyrimidinediamine]: the figures for the IC50 in assay [1] and in assay [2] were 1870 nM and > 10000 nM, respectively.
As to `COC(=O)c1cc2cc(Nc3nc(Nc4cccc(OCc5noc(C)n5)c4)ncc3F)ccc2o1` [R945131, 5-Fluoro-N4-(2-methoxycarbonylbenzofuran-5-yl)-N2-[3-(5-methyl-1,2,4-oxadiazol-3-yl)methyleneoxyphenyl]-2,4-pyrimidinediamine], the figures for the IC50 in assay [1] and in assay [2] were 770 nM and > 10000 nM, respectively.
Taken in the same sequence, the figures for `Cc1nc(COc2cccc(Nc3nc(Nc4cccc(O)c4)ncc3F)c2)no1` [R945132, 5-Fluoro-N2-(3-hydroxyphenyl)-N4-[3-(5-methyl-1,2,4-oxadiazol-3-yl)methyleneoxyphenyl]-2,4-pyrimidinediamine] were 571 nM and 8770 nM.
For the compound `Cc1nc(COc2cccc(Nc3nc(Nc4ccc(OCC(N)=O)cc4)ncc3F)c2)no1` [R945133, N2-[4-(Aminocarbonylmethoxy)phenyl]-5-fluoro-N4-[3-(5-methyl-1,2,4-oxadiazol-3-yl)methyleneoxyphenyl]-2,4-pyrimidinediamine], the figures for the IC50 in assay [1] and in assay [2] were 1060 nM and > 10000 nM, respectively.
With `Cc1nc(COc2cccc(Nc3ncc(F)c(Nc4ccc5oc(C(=O)O)cc5c4)n3)c2)no1` [R945134, N4-(2-Carboxybenzofuran-5-yl)-5-fluoro-N2-[3-(5-methyl-1,2,4-oxadiazol-3-yl)methyleneoxyphenyl]-2,4-pyrimidinediamine], the IC50 in assay [1] and in assay [2] was > 10000 nM in each case.
Take `Cc1nc(COc2cccc(Nc3ncc(F)c(Nc4ccc5oc(C(N)=O)cc5c4)n3)c2)no1` [R945135, N4-(2-Aminocarbonylbenzofuran-5-yl)-5-fluoro-N2-[3-(5-methyl-1,2,4-oxadiazol-3-yl)methyleneoxyphenyl]-2,4-pyrimidinediamine]: the IC50 came to 986 nM in assay [1] and 8240 nM in assay [2].
As to `Cc1nc(COc2cccc(Nc3nc(Nc4ccc5c(c4)OCCO5)ncc3F)c2)no1` [R945137, N2-(3,4-Ethylenedioxyphenyl)-5-fluoro-N4-[3-(5-methyl-1,2,4-oxadiazol-3-yl)methyleneoxyphenyl]-2,4-pyrimidinediamine], the IC50 in assay [1] is 1650 nM; in assay [2], > 10000 nM.
For `Cc1nc(COc2cccc(Nc3nc(Nc4ccc(OC(C)C)cc4)ncc3F)c2)no1` [R945138, 5-Fluoro-N2-(4-isopropoxyphenyl)-N4-[3-(5-methyl-1,2,4-oxadiazol-3-yl)methyleneoxyphenyl]-2,4-pyrimidinediamine], the results for the IC50 in assay [1] and in assay [2] were 1060 nM and 6730 nM, respectively.
With `COC(=O)COc1cccc(Nc2ncc(F)c(Nc3cc(C)c(O)c(C)c3)n2)c1` [R945139, N4-(3,5-Dimethyl-4-hydroxyphenyl)-5-fluoro-N2-(3-methoxycarbonylmethyleneoxyphenyl)-2,4-pyrimidinediamine], the IC50 is 1020 nM in assay [1] and > 10000 nM in assay [2].
For `COC(=O)COc1cccc(Nc2ncc(F)c(Nc3cc(C)c(O)c(Cl)c3)n2)c1` [R945148, N4-(3-Chloro-4-hydroxy-5-methylphenyl)-5-fluoro-N2-(3-methoxycarbonylmethyleneoxyphenyl)-2,4-pyrimidinediamine], the values for the IC50 in assay [1] and in assay [2] were 307 nM and > 10000 nM, respectively.
